US7211572B2 (Japan Tobacco Inc., priority 2003, dated 2007)
Where a name gives a salt, the structure may show the parent alone.

molecular target: T1, HIV integrase (Human immunodeficiency virus type 1 group M subtype B, UniProt P12497, F1332H); test: Determination of enzyme (HIV integrase) inhibitory activity; type: biochemical; details: recombinant HIV integrase (F185H), strand transfer ELISA, absorbance at 450 nm
T1 construct: HIV integrase full length gene; made in house; host or cells: Escherichia coli BL21(DE3), plasmid pET21a-INH
Summary of the method: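 Full-length integrase with F185H, expressed in E. coli and purified, was reacted for 60 min at 37 °C with compound and biotinylated donor DNA bound to streptavidin plates. Target DNA was added for 10 min, then anti-digoxigenin-peroxidase detection at A450; IC50 from % inhibition versus enzyme-free blank.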

`O=C1c2c(O)c(=O)c(-c3nccs3)cn2CCN1CCCc1cccc(Cl)c1F` [Example 312, 2-[3-(3-chloro-2-fluorophenyl)propyl]-9-hydroxy-7-(thiazol-2-yl)-3,4-dihydro-2H-pyrido[1,2-a]pyrazine-1,8-dione] and `O=C1c2c(O)c(=O)c(-c3nccs3)cn2CCN1CCCc1ccccc1F` [Example 333, 2-[3-(2-fluorophenyl)propyl)-9-hydroxy-7-(thiazol-2-yl)-3,4-dihydro-2H-pyrido[1,2-a]pyrazine-1,8-dione] fall in the same range of IC50: 10 to 100 nM for the first, 10 to 100 nM for the second.

`O=C1c2c(O)c(=O)c(-c3nccs3)cn2CCN1CCCc1ccc(Cl)c(F)c1` [Example 313, 2-[3-(4-chloro-3-fluorophenyl)propyl]-9-hydroxy-7-(thiazol-2-yl)-3,4-dihydro-2H-pyrido[1,2-a]pyrazine-1,8-dione] and `O=C1c2c(O)c(=O)c(-c3nccs3)cn2CCN1CCCc1cccc(F)c1` [Example 315, 2-[3-(3-fluorophenyl)propyl]-9-hydroxy-7-(thiazol-2-yl)-3,4-dihydro-2H-pyrido[1,2-a]pyrazine-1,8-dione] fall in the same range of IC50: 10 to 100 nM for the first, 10 to 100 nM for the second.

`O=C1c2c(O)c(=O)c(-c3nccs3)cn2CCN1CCCc1ccc(F)cc1` [Example 314, 2-[3-(4-fluorophenyl)propyl]-9-hydroxy-7-(thiazol-2-yl)-3,4-dihydro-2H-pyrido[1,2-a]pyrazine-1,8-dione] and `O=C1c2c(O)c(=O)c(-c3nccs3)cn2CCN1CCCc1ccccc1` [Example 316, 9-hydroxy-2-(3-phenylpropyl)-7-(thiazol-2-yl)-3,4-dihydro-2H-pyrido[1,2-a]pyrazine-1,8-dione hydrochloride] fall in the same range of IC50: 10 to 100 nM for the first, 10 to 100 nM for the second.

First: O=C1c2c(O)c(=O)c(-c3ccccn3)cn2CCN1Cc1cccc(Cl)c1F [Example 317, 2-(3-chloro-2-fluorobenzyl)-9-hydroxy-7-(pyridin-2-yl)-3,4-dihydro-2H-pyrido[1,2-a]pyrazine-1,8-dione hydrochloride]
Second: O=C1c2c(O)c(=O)c(-c3ccccn3)cn2CCN1Cc1ccc(F)c(Cl)c1 [Example 327, 2-(3-chloro-4-fluorobenzyl)-9-hydroxy-7-(pyridin-2-yl)-3,4-dihydro-2H-pyrido[1,2-a]pyrazine-1,8-dione hydrochloride]
The IC50 of the first is higher: 10 to 100 nM for the first, < 10 nM for the second. The second is the more potent here.

`COCC(=O)Nc1cn2ccn(Cc3ccc(F)cc3)c(=O)c2c(O)c1=O` [Example 318, N-[2-(4-fluorobenzyl)-9-hydroxy-1,8-dioxo-1,8-dihydro-2H-pyrido[1,2-a]pyrazin-7-yl]-2-methoxyacetamide] and `CC(C)C(=O)Nc1cn2ccn(Cc3ccc(F)cc3)c(=O)c2c(O)c1=O` [Example 321, N-[2-(4-fluorobenzyl)-9-hydroxy-1,8-dioxo-1,8-dihydro-2H-pyrido[1,2-a]pyrazin-7-yl]isobutyramide] fall in the same range of IC50: 10 to 100 nM for the first, 10 to 100 nM for the second.

`CC(C)S(=O)(=O)Nc1cn2ccn(Cc3ccc(F)cc3)c(=O)c2c(O)c1=O` [Example 319, N-[2-(4-fluorobenzyl)-9-hydroxy-1,8-dioxo-1,8-dihydro-2H-pyrido[1,2-a]pyrazin-7-yl]-2-propanesulfonamide] and `CCNC(=O)c1cn2ccn(Cc3ccc(F)cc3)c(=O)c2c(O)c1=O` [Example 323, N-ethyl-2-(4-fluorobenzyl)-9-hydroxy-1,8-dioxo-1,8-dihydro-2H-pyrido[1,2-a]pyrazine-7-carboxamide] fall in the same range of IC50: 10 to 100 nM for the first, 10 to 100 nM for the second.

First: O=C(Nc1cn2ccn(Cc3ccc(F)cc3)c(=O)c2c(O)c1=O)c1cccnc1 [Example 320, N-[2-(4-fluorobenzyl)-9-hydroxy-1,8-dioxo-1,8-dihydro-2H-pyrido[1,2-a]pyrazin-7-yl]nicotinamide trifluoroacetate]
Second: COCCNC(=O)c1cn2ccn(Cc3ccc(F)cc3)c(=O)c2c(O)c1=O [Example 322, N-(2-methoxyethyl)-2-(4-fluorobenzyl)-9-hydroxy-1,8-dioxo-1,8-dihydro-2H-pyrido[1,2-a]pyrazine-7-carboxamide]
The IC50 of the first is lower: < 10 nM for the first, 10 to 100 nM for the second.

`CC(=O)Nc1cn2ccn(CCCc3c(F)cccc3Cl)c(=O)c2c(O)c1=O` [Example 324, N-{2-[3-(2-chloro-6-fluorophenyl)propyl]-9-hydroxy-1,8-dioxo-1,8-dihydro-2H-pyrido[1,2-a]pyrazin-7-yl]acetamide] and `CC(=O)Nc1cn2ccn(Cc3cccc(Cl)c3F)c(=O)c2c(O)c1=O` [Example 325, N-[2-(3-chloro-2-fluorobenzyl)-9-hydroxy-1,8-dioxo-1,8-dihydro-2H-pyrido[1,2-a]pyrazin-7-yl]acetamide hydrochloride] fall in the same range of IC50: 10 to 100 nM for the first, 10 to 100 nM for the second.

First: COC(=O)c1cc(F)ccc1CN1CCn2cc(-c3nccs3)c(=O)c(O)c2C1=O [Example 326, methyl 5-fluoro-2-[9-hydroxy-1,8-dioxo-7-(thiazol-2-yl)-1,3,4,8-tetrahydro-pyrido[1,2-a]pyrazin-2-ylmethyl]benzoate]
Second: CNC(=O)c1cc(F)ccc1CCCN1CCn2cc(-c3nccs3)c(=O)c(O)c2C1=O [Example 335, 5-fluoro-2-{3-[9-hydroxy-1,8-dioxo-7-(thiazol-2-yl)-1,3,4,8-tetrahydro-pyrido[1,2-a]pyrazin-2-yl]propyl)-N-methylbenzamide]
The IC50 of the first is higher: 100 to 1000 nM for the first, 10 to 100 nM for the second.

`O=C1c2c(O)c(=O)c(-c3cccnc3)cn2CCN1Cc1cccc(Cl)c1F` [Example 328, 2-(3-chloro-2-fluorobenzyl)-9-hydroxy-7-(pyridin-3-yl)-3,4-dihydro-2H-pyrido[1,2-a]pyrazine-1,8-dione hydrochloride] and `CC(=O)Nc1cn2c(c(O)c1=O)C(=O)N(Cc1cccc(Cl)c1F)CC2` [Example 332, N-[2-(3-chloro-2-fluorobenzyl)-9-hydroxy-1,8-dioxo-1,3,4,8-tetrahydro-2H-pyrido[1,2-a]pyrazin-7-yl]acetamide] fall in the same range of IC50: 10 to 100 nM for the first, 10 to 100 nM for the second.

First: O=C1c2c(O)c(=O)c(-c3ccccn3)cn2CCN1CCCc1c(F)cccc1Cl [Example 329, 2-[3-(2-chloro-6-fluorophenyl)propyl]-9-hydroxy-7-(pyridin-2-yl)-3,4-dihydro-2H-pyrido[1,2-a]pyrazine-1,8-dione hydrochloride]
Second: CC(C)(C)C(=O)c1cn2c(c(O)c1=O)C(=O)N(CCCc1c(F)cccc1Cl)CC2 [Example 336, 2-[3-(2-chloro-6-fluorophenyl)propyl]-7-(2,2-dimethylpropionyl)-9-hydroxy-3,4-dihydro-2H-pyrido[1,2-a]pyrazine-1,8-dione]
The IC50 of the first is higher: 10 to 100 nM for the first, < 10 nM for the second. The second is the more potent here.

Compared with `O=C1c2c(O)c(=O)c(-c3nccs3)cn2CCN1Cc1cc2ccccc2o1` [Example 330, 2-(benzofuran-2-ylmethyl)-9-hydroxy-7-(thiazol-2-yl)-3,4-dihydro-2H-pyrido[1,2-a]pyrazine-1,8-dione], `O=C(NC(Cc1ccccc1)c1ccccc1)c1cn2c(c(O)c1=O)C(=O)N(Cc1cccc(Cl)c1)CC2` (stereo not shown) [Example 331, N-(1,2-diphenylethyl)-2-(3-chlorobenzyl)-9-hydroxy-1,8-dioxo-1,3,4,8-tetrahydro-2H-pyrido[1,2-a]pyrazine-7-carboxamide] is higher in IC50: < 10 nM for the first, 10 to 100 nM for the second.

`O=C(NC(CCc1ccccc1)c1ccccc1)c1cn2c(c(O)c1=O)C(=O)N(Cc1cccc(Cl)c1)CC2` (stereo not shown) [Example 334, N-(1,3-diphenylpropyl)-2-(3-chlorobenzyl)-9-hydroxy-1,8-dioxo-1,3,4,8-tetrahydro-2H-pyrido[1,2-a]pyrazine-7-carboxamide] gave an IC50 of 10 to 100 nM.
